Measurements as given in ChEMBL document CHEMBL1201862, “PubChem BioAssay data set” (2004).
Active and inactive are the calls of the source.

Assays:
Vero [1] = experiment: Vero E6 cell cytotoxicity, SAR follow-up, cytotoxicity control for West Nile virus antiviral project, synthesized analogs (AID 2244); format: functional; conditions: Chlorocebus sabaeus
Vero [2] = experiment: Vero cell cytotoxicity, cytotoxicity control for flavivirus capping enzyme inhibitors (AID 588742); format: functional; conditions: Chlorocebus sabaeus
[3] = inhibitors of Bluetongue virus cytopathic effect, confirmation, arbovirus, BSR cells (AID 1250); format: functional;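 also: protection from viral cytopathic effect measured as cell viability by ATP luminescence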
[4] = molecular target: T1, RNA-binding protein pos-1 (Caenorhabditis elegans, UniProt G5EF15); experiment: inhibitors of POS-1/mex-3 RNA binding, dose response, biochemical, fluorescence polarization (AID 1964);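 also: purified POS-1 fused to maltose binding protein made in E. coli; potency of compounds blocking POS-1 binding to fluorescent RNA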
T1 sequence (G5EF15 whole entry): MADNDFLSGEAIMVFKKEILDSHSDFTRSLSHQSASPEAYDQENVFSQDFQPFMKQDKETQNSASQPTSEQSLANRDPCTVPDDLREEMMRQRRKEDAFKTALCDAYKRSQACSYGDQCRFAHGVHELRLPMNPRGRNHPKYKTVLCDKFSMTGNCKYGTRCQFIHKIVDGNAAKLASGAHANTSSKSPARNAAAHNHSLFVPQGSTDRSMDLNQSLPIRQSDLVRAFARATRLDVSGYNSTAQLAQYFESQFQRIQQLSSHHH

Cytochrome P450 2C9 = Cytochrome P450 2C9 (Homo sapiens, UniProt P11712); conditions: read-out: Potency
[5] = molecular target: T2, Zinc finger protein mex-5 (Caenorhabditis elegans, UniProt Q9XUB2); experiment: MEX-5/TCR-2 RNA interaction inhibitors, dose response, biochemical, C. elegans, fluorescence polarization (AID 1960)
T2 sequence (Q9XUB2 whole entry): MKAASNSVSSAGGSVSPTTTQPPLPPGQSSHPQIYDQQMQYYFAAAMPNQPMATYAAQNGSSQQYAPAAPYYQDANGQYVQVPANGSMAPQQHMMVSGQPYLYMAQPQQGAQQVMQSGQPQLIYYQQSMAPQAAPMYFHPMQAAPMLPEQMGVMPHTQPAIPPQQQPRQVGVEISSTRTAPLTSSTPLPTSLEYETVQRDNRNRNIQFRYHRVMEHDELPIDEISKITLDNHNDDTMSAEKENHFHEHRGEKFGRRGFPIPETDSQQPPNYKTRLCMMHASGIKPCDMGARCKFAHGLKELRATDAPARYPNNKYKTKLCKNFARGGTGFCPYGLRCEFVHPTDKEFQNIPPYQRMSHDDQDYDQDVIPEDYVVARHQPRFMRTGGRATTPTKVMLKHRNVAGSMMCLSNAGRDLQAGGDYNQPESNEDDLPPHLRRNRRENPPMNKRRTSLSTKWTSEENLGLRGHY

Cytochrome P450 2D6 = Cytochrome P450 2D6 (Homo sapiens, UniProt P10635); experiment: qHTS Assay for Inhibitors and Substrates of Cytochrome P450 2D6. [Related pubchem assays: 410 ]; format: ADME; conditions: human; read-out: Potency
Cytochrome P450 2C19 = Cytochrome P450 2C19 (Homo sapiens, UniProt P33261); experiment: Cytochrome panel assay with activity outcomes. Panel member name: p450-cyp2c19 Compounds with AC50 equal or less than 10 uM are considered active; format: functional
[6] = HIV-1 Env-mediated cell fusion inhibitors, dose response, CCR5-tropic Env (AID 2279); format: functional
Paired box protein Pax-8 = Paired box protein Pax-8 (Homo sapiens, UniProt Q06710); experiment: inhibitors of PAX8-driven TPO luciferase reporter, dose response, RMG-I cells, cherry-pick (AID 687027); format: functional, cell-based;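 also: luciferase reporter driven by Pax8 target thyroperoxidase promoter measured by SteadyGlo luminescence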
Streptokinase A = molecular target: T3, Streptokinase A (Streptococcus pyogenes serotype M1, UniProt P10520); experiment: S. pyogenes streptokinase expression inhibitors, potency, dose response, plasminogen activation absorbance, OD405 (AID 1914); format: functional, Streptococcus pyogenes M1 GAS;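 also: secreted streptokinase activity via plasminogen activation per viability signal from cell pellet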
T3 sequence (P10520 whole entry): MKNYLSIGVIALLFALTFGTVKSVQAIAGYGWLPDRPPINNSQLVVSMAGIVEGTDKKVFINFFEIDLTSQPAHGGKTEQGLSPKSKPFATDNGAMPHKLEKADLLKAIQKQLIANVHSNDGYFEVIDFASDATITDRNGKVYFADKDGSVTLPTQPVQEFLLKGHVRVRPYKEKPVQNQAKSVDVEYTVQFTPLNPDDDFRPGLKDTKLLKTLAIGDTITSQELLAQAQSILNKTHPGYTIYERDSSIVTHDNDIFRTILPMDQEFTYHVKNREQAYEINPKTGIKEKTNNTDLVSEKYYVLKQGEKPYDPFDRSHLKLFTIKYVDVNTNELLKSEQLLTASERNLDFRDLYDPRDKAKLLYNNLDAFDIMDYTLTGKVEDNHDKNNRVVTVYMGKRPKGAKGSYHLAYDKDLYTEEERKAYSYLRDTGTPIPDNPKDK

Fatty acid synthase [7] = molecular target: T4, Fatty acid synthase (Homo sapiens, UniProt P49327); experiment: FAS thioesterase domain inhibitors, dose response, biochemical, kinetic fluorescence intensity (AID 624326); format: functional;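 also: rate of fluorescence rise from hydrolysis of a fluorogenic O-methyl fluorescein ester substrate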
Streptococcus = experiment: Group A Streptococcus viability loss, dose response, counter-screen for streptokinase expression inhibitor project, luminescence, BacTiterGlo (AID 1915); format: functional, organism-based;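 also: potency for reduction of bacterial viability or growth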
[8] = molecular target: T5, Neuropeptide Y receptor type 1 (Homo sapiens, UniProt P25929); experiment: Fluorescence-based counterscreen for agonists of NPY-Y2: cell-based high-throughput dose response assay for agonists of NPY-Y1.; format: functional
T5 sequence (P25929 whole entry): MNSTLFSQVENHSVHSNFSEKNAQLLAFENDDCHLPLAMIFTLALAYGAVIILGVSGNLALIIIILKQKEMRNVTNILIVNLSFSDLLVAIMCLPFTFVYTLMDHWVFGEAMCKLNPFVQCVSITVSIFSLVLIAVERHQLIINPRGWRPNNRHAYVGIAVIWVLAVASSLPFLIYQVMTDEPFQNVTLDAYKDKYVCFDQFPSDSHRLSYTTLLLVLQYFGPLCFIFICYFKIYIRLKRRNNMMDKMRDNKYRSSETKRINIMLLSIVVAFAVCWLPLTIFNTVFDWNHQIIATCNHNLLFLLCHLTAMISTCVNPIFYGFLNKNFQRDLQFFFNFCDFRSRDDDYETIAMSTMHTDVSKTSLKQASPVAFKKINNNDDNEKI

HEK293 = experiment: Fluorescence-based counterscreen for potentiators or agonists of NPY-Y2: cell-based high-throughput dose response assay to identify inhibitors of cyclic nucleotide gated ion channel (CNGC) activity. In this assay, the parental HEK293 cell line transfected with a cyclic-nucleotide gated ion channel (CNGC)-based cAMP sensor is used to measure inhibition of isoproterenol-induced CNGC activity by test compound.; format: functional; conditions: Homo sapiens;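 also: stimulus is 1 µM isoproterenol at EC100 plus PDE inhibitor Ro 20-1724 at 25 µM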
[9] = molecular target: T6, Neuropeptide Y receptor type 2 (Homo sapiens, UniProt P49146); experiment: Fluorescence-based cell-based high-throughput dose response assay for agonists of NPY-Y2. [Related pubchem assays: 1703 (Screening assay (CNGC inhibitors).), 1359 (Screening assay (NPY-Y2 potentiators or agonists).), 1304 (Screening assay (NPY-Y1 potentiators or agonists).), 1710 (Screening assay (NPY-Y2 agonists).), 1791 (Summary AID.)]; format: functional
T6 sequence (P49146 whole entry): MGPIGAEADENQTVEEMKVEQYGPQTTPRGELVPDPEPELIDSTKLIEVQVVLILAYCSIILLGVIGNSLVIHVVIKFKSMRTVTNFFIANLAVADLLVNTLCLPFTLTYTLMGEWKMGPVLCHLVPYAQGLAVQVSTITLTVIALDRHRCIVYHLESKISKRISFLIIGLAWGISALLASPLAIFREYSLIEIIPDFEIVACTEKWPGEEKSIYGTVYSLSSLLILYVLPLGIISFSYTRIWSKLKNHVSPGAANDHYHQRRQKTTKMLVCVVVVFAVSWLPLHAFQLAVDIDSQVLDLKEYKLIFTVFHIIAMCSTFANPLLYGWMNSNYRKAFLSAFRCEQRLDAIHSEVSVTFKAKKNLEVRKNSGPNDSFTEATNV

[10] = system: Streptococcus sp. 'group A'; experiment: growth inhibition of control SK(-) GAS strain, dose response, counter-screen for streptokinase expression inhibitor project, luminescence, kanamycin, BacTiterGlo, confirmation (AID 1900); format: functional, organism-based
Fatty acid synthase [11] = molecular target: T4, Fatty acid synthase; experiment: FAS thioesterase domain inhibitors, dose response, biochemical, endpoint fluorescence intensity, uHTS hits (AID 624327); format: functional;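 also: fluorescence from hydrolysis of an O-methyl fluorescein acyl ester substrate by the enzyme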
[12] = molecular target: T7, Eukaryotic translation initiation factor 2-alpha kinase 3 (Homo sapiens, UniProt Q9NZJ5); experiment: Counterscreen assay for PERK inhibitors: Dose response cell-based high throughput screening assay to measure inhibition of PERK at 6 hours. [Related pubchem assays: 1522, 1416 ]; format: functional
[13] = molecular target: T7, Eukaryotic translation initiation factor 2-alpha kinase 3; experiment: Dose response cell-based high-throughput screening assay to measure PERK inhibition. [Related pubchem assays: 1416 ]; format: functional
[14] = molecular target: Mothers against decapentaplegic homolog 3 (Homo sapiens, UniProt P84022); experiment: Smad3 binding inhibitors, lysate ELISA, dose response, cell lysate, secondary confirmation, chemiluminescent ELISA, HEK293 lysate (AID 1058); format: functional
Chain of Mothers against decapentaplegic homolog 3 (P84022 whole entry): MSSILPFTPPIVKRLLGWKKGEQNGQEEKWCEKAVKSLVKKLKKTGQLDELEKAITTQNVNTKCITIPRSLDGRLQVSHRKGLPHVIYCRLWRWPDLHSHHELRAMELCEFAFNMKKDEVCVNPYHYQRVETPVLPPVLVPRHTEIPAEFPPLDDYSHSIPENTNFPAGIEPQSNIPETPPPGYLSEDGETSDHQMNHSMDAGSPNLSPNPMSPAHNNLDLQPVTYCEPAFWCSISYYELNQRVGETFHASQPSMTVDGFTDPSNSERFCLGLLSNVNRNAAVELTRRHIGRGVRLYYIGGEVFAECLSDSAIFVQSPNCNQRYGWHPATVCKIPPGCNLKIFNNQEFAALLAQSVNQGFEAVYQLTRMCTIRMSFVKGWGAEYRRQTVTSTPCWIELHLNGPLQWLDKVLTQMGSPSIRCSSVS

T7 sequence (Q9NZJ5 whole entry): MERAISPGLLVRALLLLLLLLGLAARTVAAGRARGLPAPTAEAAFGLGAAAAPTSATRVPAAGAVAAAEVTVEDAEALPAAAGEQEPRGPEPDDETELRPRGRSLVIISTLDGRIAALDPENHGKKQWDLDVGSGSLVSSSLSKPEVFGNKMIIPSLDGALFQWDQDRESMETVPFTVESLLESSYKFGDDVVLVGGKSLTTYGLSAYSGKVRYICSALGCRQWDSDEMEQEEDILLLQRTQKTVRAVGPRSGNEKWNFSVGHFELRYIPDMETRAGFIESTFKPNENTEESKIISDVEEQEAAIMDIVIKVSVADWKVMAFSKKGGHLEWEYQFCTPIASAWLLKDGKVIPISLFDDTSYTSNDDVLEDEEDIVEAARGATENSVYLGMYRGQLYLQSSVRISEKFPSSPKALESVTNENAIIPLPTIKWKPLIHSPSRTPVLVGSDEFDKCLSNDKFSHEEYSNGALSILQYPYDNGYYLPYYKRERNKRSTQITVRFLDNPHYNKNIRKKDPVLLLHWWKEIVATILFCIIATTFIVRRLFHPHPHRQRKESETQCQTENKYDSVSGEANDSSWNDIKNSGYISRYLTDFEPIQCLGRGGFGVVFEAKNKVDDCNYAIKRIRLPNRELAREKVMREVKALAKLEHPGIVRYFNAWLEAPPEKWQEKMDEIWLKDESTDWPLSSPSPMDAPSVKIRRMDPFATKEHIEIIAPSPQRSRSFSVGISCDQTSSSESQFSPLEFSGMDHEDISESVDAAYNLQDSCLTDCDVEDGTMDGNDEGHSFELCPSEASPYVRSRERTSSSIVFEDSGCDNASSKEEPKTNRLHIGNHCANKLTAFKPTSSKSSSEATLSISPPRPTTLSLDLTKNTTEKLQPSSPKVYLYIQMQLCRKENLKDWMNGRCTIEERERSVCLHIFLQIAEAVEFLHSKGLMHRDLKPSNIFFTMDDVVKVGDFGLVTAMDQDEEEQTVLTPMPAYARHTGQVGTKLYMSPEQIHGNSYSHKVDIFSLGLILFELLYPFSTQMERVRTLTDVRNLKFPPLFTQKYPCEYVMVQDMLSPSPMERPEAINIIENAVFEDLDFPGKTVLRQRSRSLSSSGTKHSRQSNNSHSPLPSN
T4 sequence (P49327 whole entry, the tested form may be a part): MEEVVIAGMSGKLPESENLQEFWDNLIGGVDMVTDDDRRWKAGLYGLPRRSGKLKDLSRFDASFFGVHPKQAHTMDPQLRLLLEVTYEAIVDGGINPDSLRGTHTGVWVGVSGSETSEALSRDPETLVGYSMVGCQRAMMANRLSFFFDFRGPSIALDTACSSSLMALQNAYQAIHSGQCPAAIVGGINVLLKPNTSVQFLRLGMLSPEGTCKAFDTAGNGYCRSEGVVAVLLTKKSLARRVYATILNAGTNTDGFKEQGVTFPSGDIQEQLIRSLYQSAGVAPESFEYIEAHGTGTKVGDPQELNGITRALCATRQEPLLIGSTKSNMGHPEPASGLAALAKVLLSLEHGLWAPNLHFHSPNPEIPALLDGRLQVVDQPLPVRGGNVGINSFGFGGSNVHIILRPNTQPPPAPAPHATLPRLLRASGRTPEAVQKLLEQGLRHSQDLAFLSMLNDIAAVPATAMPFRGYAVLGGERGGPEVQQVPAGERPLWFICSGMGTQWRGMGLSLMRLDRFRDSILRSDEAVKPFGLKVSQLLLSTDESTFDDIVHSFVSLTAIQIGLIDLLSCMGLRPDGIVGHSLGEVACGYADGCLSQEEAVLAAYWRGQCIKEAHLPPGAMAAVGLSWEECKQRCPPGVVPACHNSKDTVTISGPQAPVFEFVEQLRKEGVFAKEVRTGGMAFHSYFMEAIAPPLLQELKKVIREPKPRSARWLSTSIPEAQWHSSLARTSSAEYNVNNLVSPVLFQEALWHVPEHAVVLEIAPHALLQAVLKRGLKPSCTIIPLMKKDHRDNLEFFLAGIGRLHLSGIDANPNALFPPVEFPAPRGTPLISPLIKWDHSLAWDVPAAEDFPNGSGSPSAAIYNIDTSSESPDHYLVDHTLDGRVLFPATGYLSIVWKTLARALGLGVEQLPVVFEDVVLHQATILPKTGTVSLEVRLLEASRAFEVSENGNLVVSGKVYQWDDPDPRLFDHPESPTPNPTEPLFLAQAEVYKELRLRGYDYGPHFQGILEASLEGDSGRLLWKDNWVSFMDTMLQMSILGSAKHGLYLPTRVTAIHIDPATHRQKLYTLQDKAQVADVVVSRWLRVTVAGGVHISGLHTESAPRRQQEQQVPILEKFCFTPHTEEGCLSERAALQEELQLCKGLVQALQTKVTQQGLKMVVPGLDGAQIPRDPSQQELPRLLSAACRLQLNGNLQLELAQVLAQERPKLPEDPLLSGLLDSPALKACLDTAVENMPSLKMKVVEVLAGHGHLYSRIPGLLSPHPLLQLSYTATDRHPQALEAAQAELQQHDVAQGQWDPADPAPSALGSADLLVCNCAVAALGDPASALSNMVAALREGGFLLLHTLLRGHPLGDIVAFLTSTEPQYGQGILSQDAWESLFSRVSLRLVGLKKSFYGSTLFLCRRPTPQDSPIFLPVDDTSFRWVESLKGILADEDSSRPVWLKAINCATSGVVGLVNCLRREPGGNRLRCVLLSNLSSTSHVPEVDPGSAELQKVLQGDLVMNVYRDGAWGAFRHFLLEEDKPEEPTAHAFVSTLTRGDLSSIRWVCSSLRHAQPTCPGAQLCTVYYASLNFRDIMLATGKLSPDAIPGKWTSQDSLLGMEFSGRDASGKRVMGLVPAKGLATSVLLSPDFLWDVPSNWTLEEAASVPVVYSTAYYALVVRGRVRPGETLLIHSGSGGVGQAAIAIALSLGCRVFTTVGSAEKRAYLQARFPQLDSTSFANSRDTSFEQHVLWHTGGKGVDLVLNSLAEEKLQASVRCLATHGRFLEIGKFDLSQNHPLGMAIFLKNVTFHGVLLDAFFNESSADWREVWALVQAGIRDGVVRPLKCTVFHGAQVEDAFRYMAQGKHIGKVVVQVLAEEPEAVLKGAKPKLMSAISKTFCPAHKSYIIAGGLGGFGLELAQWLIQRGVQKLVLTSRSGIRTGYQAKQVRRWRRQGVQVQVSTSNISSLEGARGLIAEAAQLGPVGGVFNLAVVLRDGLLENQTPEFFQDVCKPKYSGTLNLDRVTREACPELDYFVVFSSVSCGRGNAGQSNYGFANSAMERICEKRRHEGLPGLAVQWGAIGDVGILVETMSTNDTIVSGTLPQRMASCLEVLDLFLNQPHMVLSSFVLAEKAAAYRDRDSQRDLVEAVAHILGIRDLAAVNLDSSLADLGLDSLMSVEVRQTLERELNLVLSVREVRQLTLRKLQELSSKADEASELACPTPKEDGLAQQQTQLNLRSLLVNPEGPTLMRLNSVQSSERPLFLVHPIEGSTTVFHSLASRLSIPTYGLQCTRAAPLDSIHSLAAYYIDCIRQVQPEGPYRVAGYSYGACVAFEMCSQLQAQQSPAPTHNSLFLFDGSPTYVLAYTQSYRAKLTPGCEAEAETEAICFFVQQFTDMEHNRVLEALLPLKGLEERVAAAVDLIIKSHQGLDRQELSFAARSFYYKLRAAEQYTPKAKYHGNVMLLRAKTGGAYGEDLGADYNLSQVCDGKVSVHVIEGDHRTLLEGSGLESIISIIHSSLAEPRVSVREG
Chain of Cytochrome P450 2C19 (P33261 whole entry, the tested form may be a part): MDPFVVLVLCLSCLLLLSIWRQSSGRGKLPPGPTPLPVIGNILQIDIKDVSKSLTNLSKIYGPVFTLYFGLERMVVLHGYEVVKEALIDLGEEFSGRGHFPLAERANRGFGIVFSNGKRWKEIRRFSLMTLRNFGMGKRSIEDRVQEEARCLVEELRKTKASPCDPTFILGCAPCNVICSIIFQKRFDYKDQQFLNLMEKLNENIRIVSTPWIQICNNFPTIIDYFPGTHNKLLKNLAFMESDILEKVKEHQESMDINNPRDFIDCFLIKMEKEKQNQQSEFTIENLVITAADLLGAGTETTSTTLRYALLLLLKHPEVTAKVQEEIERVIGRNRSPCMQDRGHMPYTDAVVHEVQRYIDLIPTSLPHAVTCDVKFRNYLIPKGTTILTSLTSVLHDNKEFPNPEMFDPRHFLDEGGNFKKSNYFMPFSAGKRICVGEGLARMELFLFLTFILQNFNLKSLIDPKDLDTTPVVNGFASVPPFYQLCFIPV
Chain of Cytochrome P450 2C9 (P11712 whole entry): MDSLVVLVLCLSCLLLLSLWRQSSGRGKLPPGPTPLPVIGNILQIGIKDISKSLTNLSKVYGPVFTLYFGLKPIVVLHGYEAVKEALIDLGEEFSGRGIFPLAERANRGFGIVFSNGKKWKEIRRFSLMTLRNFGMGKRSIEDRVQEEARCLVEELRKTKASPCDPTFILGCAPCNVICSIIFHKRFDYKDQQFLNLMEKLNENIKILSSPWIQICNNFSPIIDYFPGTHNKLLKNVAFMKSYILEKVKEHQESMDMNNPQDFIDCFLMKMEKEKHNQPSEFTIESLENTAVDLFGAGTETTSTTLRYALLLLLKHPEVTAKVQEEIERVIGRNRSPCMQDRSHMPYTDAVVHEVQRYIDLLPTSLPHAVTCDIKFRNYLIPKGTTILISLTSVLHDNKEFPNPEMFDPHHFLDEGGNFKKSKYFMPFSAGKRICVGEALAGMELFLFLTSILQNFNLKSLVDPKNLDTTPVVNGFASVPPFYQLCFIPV

With `O=C(Nc1nc(-c2ccc(Cl)cc2)cs1)c1ccc(I)cc1` the CC50 (Vero [1]) was > 40 µM (active).
For `CCOc1ccc(CNc2ccc3c(c2)nc(C)n3C)cc1`, the CC50 (Vero [2]) was > 40 µM (active) and the IC50 [3] was 26.6 µM (active).
For `C=CC1=C(C)c2cc3[nH]c(cc4nc(cc5[nH]c(cc1n2)c(C)c5CCC(=O)O)C(CCC(=O)O)=C4C)c(C)c3C=C` [PROTOPORPHYRIN], the EC50 [4] was 9.95 µM (active), the AC50 (Cytochrome P450 2C9) was 6.31 µM (inconclusive) and the EC50 [5] was 8.89 µM (active). The AC50 (Cytochrome P450 2D6) was 25.1 µM (inconclusive), the CC50 (Vero [2]) was 19.7 µM (active) and the AC50 (Cytochrome P450 2C19) was “inconclusive”.
For `COc1ccc(C(=O)/C=C/c2cccc(OCc3ccccc3)c2)cc1CSCC(=O)O`, the IC50 [6] was 18.7 µM (active).
With `C=CCN1C(=O)/C(=C/c2ccc(OC(C)=O)c(OCC)c2[N+](=O)[O-])SC1=S` the AC50 (Paired box protein Pax-8) was 5.91 µM (active), the EC50 (Streptokinase A) was > 150 µM (not active) and the IC50 (Fatty acid synthase [7]) was 2.87 µM (active). The EC50 (Streptococcus) was 2.63 µM (active), the EC50 [8] was 14.8 µM (not active) and the EC50 (HEK293) was > 11.8 µM (not active). The EC50 [9] was 18.4 µM (not active), the EC50 [10] was 1.32 µM (active) and the IC50 (Fatty acid synthase [11]) was 5.92 µM (active).
For `Cc1cccc(/C=N/n2c(S)nnc2-c2ccco2)c1`, the EC50 [12] was > 55.7 µM (not active) and the EC50 [13] was > 55.7 µM (not active).
In the case of `COc1ccc(C(c2cc3c(cc2O)OCO3)N2CCN(C(c3ccc(OC)cc3)c3cc4c(cc3O)OCO4)CC2)cc1` (configuration not stated), the IC50 [14] is reported as 36.1 µM (not active).
